Measured values taken from patent US20090117599A1, “METHOD OF DETECTING SUGAR CHAINS HAVING GlcNAc TRANSFERRED BY GnT-V” (priority 2005, published 2009).

What was measured:
[1] = system: Boletopsis leucomelas lectin (BLL); test: Frontal affinity chromatography (FAC) on immobilized BLL lectin column; assay type: binding; settings: for affinity of BLL for pNP glycosides (in words): pNP-sugar chain 5 μM, FIG. 3(A) right
Protocol: (§1) It is preferable to use the frontal affinity chromatography (FAC) method for measuring the binding constant between lectin and sugar chain.
(§2) […] each of pyridylaminated sugar chains (PA-sugar chains) is continuously poured into two buffered lectin columns at a flow rate of 0.125 ml/min. The PA-sugar chain has been diluted to the concentration (2.5 nM) which is sufficiently lower than the dissociation constant (Kd) of a lectin in a buffer solution for analysis (10 mM Tris-HCl buffer solution (pH 7.4) containing 0.8% NaCl). Elution of the PA-sugar chain from the column is detected with use of a fluorescence detector (with exciting wavelength/fluorescence wavelength: 310 nm/380 nm).
(§3) Then, the binding constant (Ka) between the sugar chain and the lectin is determined from V-V0 and Bt based on the FAC reference equation.
(§4) BLL was dissolved in 0.2M NaHCO3 buffer solution (pH 8.3) containing 0.5M NaCl, and bound with NHS-activated Sepharose (GE Healthcare Bioscience, Uppsala, Sweden) according to the operation manual of the manufacturer. The lectin-Sepharose was suspended in 10 mM Tris-HCl buffer solution (pH 7.4, TBS buffer solution) containing 0.8% NaCl, and filled in a miniature column (+2 mm×10 mm, 31.4 μl). A GSL-II lectin column was prepared in a similar manner.
(§5) A frontal affinity chromatography was carried out with use of an FAC automated analysis system (FAC-1, Shimadzu Corporation). More specifically, the lectin column prepared as described above was inserted in a stainless holder and connected to the FAC-1 system.
(§6) The flow rate and column temperature were kept at 0.125 ml/min and 25 °C, respectively. […]
(§7) Eluates of pNP-sugar chain and PA-sugar chain were monitored by measuring UV (280 nm) and fluorescence (with the exciting wavelength 310 nm and the fluorescence wave length 380 nm). A front end eluate (i.e., V-V0) was measured with respect to a standard oligosaccharide (PA-lactose). In addition, the dissociation constant (Kd) was determined from V-V0 and Bt based on the FAC reference equation. Note that the binding constant Ka is determined by the equation Ka=1/Kd.
(§8) Analysis of the concentration dependency was carried out to measure the effective ligand concentration Bt. […] Next, V-V0 (the delay of the eluted front end) was calculated in accordance with the method developed by Arata (“Application of reinforced frontal affinity chromatography and advanced processing procedure to the study of the binding property of a Caenorhabditis elegans galectin”, J Chromatogr A. 905, 337-43). A Hofstee-type plot ((V-V0) vs. (V-V0) [A]0) was created, and Bt and Kd were respectively determined from the intercept and the slope of the approximate curve. […]

[2] = target: Griffonia simplicifolia lectin II (GSL-II) (Griffonia simplicifolia, UniProt Q41263); test: Frontal affinity chromatography (FAC) on immobilized GSL-II lectin column; assay type: binding; settings: for affinity of GSL-II for pNP glycosides (in words): pNP-sugar chain 5 μM, FIG. 3(A) left
Protocol: as §1, §2, §3, §4, §5, §6, §7, §8

Chain of Griffonia simplicifolia lectin II (GSL-II) (Q41263 entry or part of it): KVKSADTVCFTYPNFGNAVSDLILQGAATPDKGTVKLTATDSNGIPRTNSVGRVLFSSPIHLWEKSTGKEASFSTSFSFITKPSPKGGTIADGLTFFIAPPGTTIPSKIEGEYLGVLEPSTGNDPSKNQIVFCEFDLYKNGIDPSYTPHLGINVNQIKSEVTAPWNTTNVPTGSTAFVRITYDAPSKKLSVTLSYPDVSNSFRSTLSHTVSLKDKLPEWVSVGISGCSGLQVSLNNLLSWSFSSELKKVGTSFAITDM

Row | SMILES | affinity of BLL for pNP glycosides (in words) [1] | Kd [2] | affinity of GSL-II for pNP glycosides (in words) [2] | binding relative to that of the other anomer ([2]; GSL-II, pNP glycosides) | Ka ([1]; pNP derivatives (5 μM), FAC, 25 C, TBS pH 7.4)
1 | CC(=O)N[C@H]1[C@@H](Oc2ccc([N+](=O)[O-])cc2)O[C@H](CO)[C@@H](O)[C@@H]1O [GlcNAcα-pNP] | did not show remarkable affinity | 7.14 µM | strongest affinity |  | 
2 | CC(=O)N[C@H]1[C@H](Oc2ccc([N+](=O)[O-])cc2)O[C@H](CO)[C@@H](O)[C@@H]1O [GlcNAcβ-pNP] | did not show remarkable affinity |  | remarkable affinity | 1/7 | 
3 | CC(=O)N[C@H]1[C@@H](Oc2ccc([N+](=O)[O-])cc2)O[C@H](CO)[C@H](O)[C@@H]1O[C@@H]1O[C@H](CO)[C@H](O)[C@H](O)[C@H]1O [Galβ1-3GalNAcα-pNP, Galβ1-3 GalNAcα-pNP] | remarkable affinity |  |  |  | 90000 M⁻¹
